Reference: patent publication US20220281868A1, “MACROCYCLIC DERIVATIVES AS FACTOR XIA INHIBITORS” (MEDSHINE DISCOVERY INC., priority 2019, published 2022)

Columns and labels:
human factor XIa = biological target: T1, human factor XIa (Homo sapiens, UniProt P03951); test: Screening test of enzyme inhibitory activity on hFXIa; type: biochemical; conditions: substrate S-2366/S-2306, 37° C. 10 minutes, absorbance 405 nm, pH 7.4
T1 construct: Enzyme, Human Factor XIa (Human Factor XIa, Abcam, Cat #ab62411); purchased Abcam ab62411
T1 sequence (P03951 388-625 limits assumed): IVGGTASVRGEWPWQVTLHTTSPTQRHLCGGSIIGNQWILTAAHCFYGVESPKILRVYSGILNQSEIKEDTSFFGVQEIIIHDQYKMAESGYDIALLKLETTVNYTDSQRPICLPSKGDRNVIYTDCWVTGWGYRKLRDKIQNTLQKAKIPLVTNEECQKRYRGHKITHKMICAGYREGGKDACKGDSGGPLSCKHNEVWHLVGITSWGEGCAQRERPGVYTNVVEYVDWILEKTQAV
T1 sequence (P03951 19-387 partner limits assumed): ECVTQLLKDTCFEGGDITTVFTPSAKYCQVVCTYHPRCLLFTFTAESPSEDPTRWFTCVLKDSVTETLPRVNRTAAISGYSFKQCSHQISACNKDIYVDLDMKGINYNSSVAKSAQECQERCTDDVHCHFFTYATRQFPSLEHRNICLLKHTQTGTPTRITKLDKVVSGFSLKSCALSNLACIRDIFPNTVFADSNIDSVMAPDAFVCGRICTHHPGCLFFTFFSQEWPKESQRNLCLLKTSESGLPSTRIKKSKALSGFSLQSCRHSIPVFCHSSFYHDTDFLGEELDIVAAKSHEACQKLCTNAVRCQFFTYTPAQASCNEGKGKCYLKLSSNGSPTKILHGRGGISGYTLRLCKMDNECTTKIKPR
Experimental: 1. Screening Test of Enzyme Inhibitory Activity on hFXIa (Human Factor XIa)
(§1) Purpose of the Experiment:
Detection of the inhibitory activity of the compounds of the present disclosure on human factor XIa
1) Experimental buffer pH 7.4
100 mM Tris-HCl (Sigma, catalog number: T2663, batch number: SLBG2775)
200 mM NaCl (Sigma, catalog number: 13423, batch number: SZBB2360V)
2) Enzymes and Substrates
Enzyme, Human Factor XIa (Human Factor XIa, Abcam, Cat #ab62411): Total amount: 50 μg. Dissolved with experimental buffer and packed separately.
Substrate S-2366 (DiaPharma, catalog number: S821090): 25 mg
3) Instruments and Consumables
SpectraMax 340PC Multifunctional Microplate Reader (Molecular Devices)
384-well black transparent reaction plate (Corning Cata #3712)
Echo Liquid Workstation (Labcyte)
Echo 384-well polypropylene compound plate (Labcyte-P-05525) was used.
Echo 384 Shallow Pore Polypropylene Compound plate (Labcyte-LP-0200, 2.5-12 μL) was used.
Multidrop automatic dispenser (Thermo Scientific)
Multidrop Consumables (Thermo Scientific-24073290) […]
7) The reaction plate was placed in SpectraMax 340PC and incubated at 37° C. for 10 minutes, and the absorbance was detected at 405 nm.
8) Data were analyzed using GraphPad Prism 5.0
% Inhibition rate=100%×[1−(sample reading-low signal average value)/(high signal average value-low signal average value)]
IC50 was analyzed using 4-factor linear regression: […]

human plasma = test: Determination of aPTT (activated partial thromboplastin time) in human plasma in vitro; conditions: coagulation time
From the text: 2. Determination of aPTT (Activated Partial Thromboplastin Time) in Human Plasma In Vitro
as §1
Detection of the anticoagulant effect of the compounds of the present disclosure on human plasma in vitro
1) Coagulation quality control plasma: produced by TECO, Germany, batch number: 093B-J186A
2) aPTT test solution: produced by TECO, Germany, batch number: 20002745; CaCl2): produced by TECO, Germany, batch number: 031N-J073A; DMSO: Sangon Bioengineering (Shanghai) Co., Ltd., batch number: BB02BA0001
3) Instrument: Germany Meichuang MC-4000 blood coagulation instrument
1) Sample solution preparation: 10 mM compound stock solution was prepared with DMSO, and then serially diluted with DMSO as follows: […], 2500, 625, 156.25, 39.06, 9.76, 2.44 μM; then series of concentrations were diluted with tris(hydroxymethylaminomethane) buffer (containing 5% Tween 80) 10 times for use, and the drug to plasma volume ratio was 1:9 during detection. […]
4) Test detection: According to the instructions of the kit, the sample solution to be tested or the reference solution were added into the 37° C. preheated colorimetric cup, preheated at 37° C. for 2 min, aPTT reagent was added, incubated at 37° C. for 3 min, 0.02 M CaCl2 (preheated at 37° C.) was added, and the coagulation time was recorded.

IC50 (human factor XIa) | Compound | aPTT2x (human plasma)
3.5 nM | [2H]C([2H])([2H])n1ncc2c1-c1ccnc(c1)C(c1coc(-c3c(-n4cc(Cl)nn4)ccc(Cl)c3F)cc1=O)CCCC(C)C(=O)N2 (stereo not shown) [Compound 8-1] | 4.94 µM
2.28 nM | C[C@@H]1CCCC(c2coc(-c3cc(Cl)ccc3-n3cc(C#N)nn3)cc2=O)c2cc(ccn2)-c2c(cnn2C(F)F)NC1=O (stereo partly shown) [Compound 4] | 
 | Enoxaparin [reference compound] | 4.61 µM
